The record followed here is ChEMBL document CHEMBL4406802, “Human disorders associated with inflammation and the evolving role of natural products to overcome” (Eur J Med Chem, 2019).

Values after ≈ are worked out from the molar mass of the structure shown.

Experiment [1] deals with T1, Prostaglandin G/H synthase 2 (Homo sapiens) (UniProt P35354).
T1 sequence (whole entry): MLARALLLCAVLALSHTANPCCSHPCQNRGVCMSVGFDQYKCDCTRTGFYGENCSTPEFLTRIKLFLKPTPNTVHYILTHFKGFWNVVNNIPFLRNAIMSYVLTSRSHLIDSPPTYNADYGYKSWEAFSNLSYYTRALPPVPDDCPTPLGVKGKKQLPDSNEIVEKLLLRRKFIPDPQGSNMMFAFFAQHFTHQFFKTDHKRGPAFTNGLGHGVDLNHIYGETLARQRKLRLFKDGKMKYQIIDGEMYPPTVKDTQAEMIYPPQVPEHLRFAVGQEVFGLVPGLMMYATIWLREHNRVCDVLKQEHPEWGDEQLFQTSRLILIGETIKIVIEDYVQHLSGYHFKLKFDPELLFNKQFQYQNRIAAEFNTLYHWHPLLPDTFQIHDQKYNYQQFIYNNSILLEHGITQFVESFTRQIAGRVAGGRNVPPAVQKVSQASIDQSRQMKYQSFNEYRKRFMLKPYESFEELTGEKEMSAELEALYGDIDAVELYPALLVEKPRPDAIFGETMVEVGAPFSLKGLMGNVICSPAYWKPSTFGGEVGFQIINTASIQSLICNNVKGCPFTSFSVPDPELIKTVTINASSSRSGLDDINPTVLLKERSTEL
In words: Inhibition of N-terminal His6-tagged recombinant human COX2 expressed in baculovirus infected sf21 cells at 20 uM relative to control.

The target in experiment [2] is Nitric oxide synthase, inducible (Homo sapiens, UniProt P35228). In words: Inhibition of iNOS (unknown origin) at 20 uM relative to control.
Chain of Nitric oxide synthase, inducible (P35228 whole entry): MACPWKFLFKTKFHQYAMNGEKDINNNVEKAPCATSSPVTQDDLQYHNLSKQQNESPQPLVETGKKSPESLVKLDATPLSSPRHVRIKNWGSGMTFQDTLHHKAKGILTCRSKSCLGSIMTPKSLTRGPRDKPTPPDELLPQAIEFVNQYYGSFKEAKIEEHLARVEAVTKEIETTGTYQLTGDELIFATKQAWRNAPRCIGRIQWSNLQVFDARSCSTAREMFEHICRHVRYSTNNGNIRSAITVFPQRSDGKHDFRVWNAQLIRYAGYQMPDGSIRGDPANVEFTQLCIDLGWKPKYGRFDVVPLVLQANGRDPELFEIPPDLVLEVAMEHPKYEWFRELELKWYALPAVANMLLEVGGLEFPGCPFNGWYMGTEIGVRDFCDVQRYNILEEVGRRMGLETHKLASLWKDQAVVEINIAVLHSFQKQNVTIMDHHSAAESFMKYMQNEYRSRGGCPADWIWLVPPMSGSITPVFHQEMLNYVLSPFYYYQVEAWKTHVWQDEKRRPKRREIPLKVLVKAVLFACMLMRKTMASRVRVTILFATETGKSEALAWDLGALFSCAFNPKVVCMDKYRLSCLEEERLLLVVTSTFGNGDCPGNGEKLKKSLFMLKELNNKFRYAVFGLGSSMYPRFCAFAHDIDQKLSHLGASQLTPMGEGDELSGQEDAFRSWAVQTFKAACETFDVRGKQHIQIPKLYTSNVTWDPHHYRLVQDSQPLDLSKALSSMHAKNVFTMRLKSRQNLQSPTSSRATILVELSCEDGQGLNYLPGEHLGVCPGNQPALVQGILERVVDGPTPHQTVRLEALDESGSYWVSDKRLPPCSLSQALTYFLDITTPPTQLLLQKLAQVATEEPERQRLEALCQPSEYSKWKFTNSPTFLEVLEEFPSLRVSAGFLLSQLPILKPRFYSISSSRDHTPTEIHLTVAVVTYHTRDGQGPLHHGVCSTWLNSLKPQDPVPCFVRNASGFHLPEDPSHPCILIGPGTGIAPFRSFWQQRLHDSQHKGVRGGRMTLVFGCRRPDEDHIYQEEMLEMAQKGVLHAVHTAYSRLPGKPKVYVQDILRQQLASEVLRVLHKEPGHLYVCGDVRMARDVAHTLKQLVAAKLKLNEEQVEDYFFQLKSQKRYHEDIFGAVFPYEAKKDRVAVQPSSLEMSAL
For a further experiment, the system named is THP-1. Briefly: Antiinflammatory activity against human THP1 cells assessed as inhibition of LPS induced TNF-alpha at 100 uM preincubated for 30 mins followed by LPS stimulation measured after 24 hrs by ELISA relative to control. The experiment is classed as functional.
Experiment [3] deals with Prostaglandin G/H synthase 2 (Homo sapiens) (UniProt P35354). In words: Inhibition of COX2 (unknown origin) at 0.01 mM using arachidonic acid as substrate preincubated for 15 mins followed by arachidonic acid addition measured after […] by ELISA relative to control.
Experiment [4] has as its target T1, Prostaglandin G/H synthase 2 (Homo sapiens). Briefly: Inhibition of COX2 (unknown origin) at […] using arachidonic acid as substrate preincubated for 15 mins followed by arachidonic acid addition measured after 2 mins by ELISA relative to control.
Experiment [5] can be described thus: Inhibition of soybean 15-LOX using linoleic acid as substrate preincubated for 5 mins followed by substrate addition and measured after 20 mins by spectrophotometric analysis. Set-up: species or system Glycine max.
Experiment [6] concerns RAW264.7. In words: Antiinflammatory activity in mouse RAW264.7 cells assessed as inhibition of LPS-induced nitric oxide production at […] after 24 hrs by Griess reagent based assay relative to control. The experiment is classed as functional. Set-up: dose or concentration left out as unconfirmed. The settings on record: RAW264.7, 24 h.
For experiment [7], the target named is T1, Prostaglandin G/H synthase 2 (Homo sapiens). Briefly: Inhibition of COX2 (unknown origin) at 20 uM relative to control.
The target in experiment [8] is T2, Prostaglandin G/H synthase 2 (Ovis aries, UniProt P79208).
T2 sequence (P79208 whole entry): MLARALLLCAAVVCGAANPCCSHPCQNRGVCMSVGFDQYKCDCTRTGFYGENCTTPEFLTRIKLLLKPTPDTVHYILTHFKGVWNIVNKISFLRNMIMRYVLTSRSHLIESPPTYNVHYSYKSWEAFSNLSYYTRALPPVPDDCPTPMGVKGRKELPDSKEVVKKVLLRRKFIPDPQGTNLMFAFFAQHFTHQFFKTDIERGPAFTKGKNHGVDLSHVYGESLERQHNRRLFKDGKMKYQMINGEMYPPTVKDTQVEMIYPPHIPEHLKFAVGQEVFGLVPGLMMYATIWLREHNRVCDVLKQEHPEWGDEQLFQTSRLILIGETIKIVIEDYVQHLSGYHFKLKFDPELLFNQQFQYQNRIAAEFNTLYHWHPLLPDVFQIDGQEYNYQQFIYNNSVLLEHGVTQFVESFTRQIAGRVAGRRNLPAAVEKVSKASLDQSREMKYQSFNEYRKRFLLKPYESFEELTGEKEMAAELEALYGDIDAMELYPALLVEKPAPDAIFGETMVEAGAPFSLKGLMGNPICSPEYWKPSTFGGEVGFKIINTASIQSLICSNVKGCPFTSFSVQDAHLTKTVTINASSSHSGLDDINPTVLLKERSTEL
In words: Inhibition of ovine COX2 using arachidonic acid as substrate by enzyme immunoassay.

For experiment [9], the system named is RAW264.7. In words: Antiinflammatory activity against mouse RAW264.7 cells assessed as inhibition of LPS induced iNOS at 30 uM preincubated for 1 hr followed by LPS stimulation measured after 18 hrs relative to control. The experiment is classed as functional.
Experiment [10] deals with RAW264.7. In words: Antiinflammatory activity against mouse RAW264.7 cells assessed as inhibition of LPS induced COX2 at 30 uM preincubated for 1 hr followed by LPS stimulation measured after 18 hrs relative to control. The format is functional.
Experiment [11] has as its target T3, Polyunsaturated fatty acid 5-lipoxygenase (Homo sapiens) (UniProt P09917).
T3 sequence (whole entry): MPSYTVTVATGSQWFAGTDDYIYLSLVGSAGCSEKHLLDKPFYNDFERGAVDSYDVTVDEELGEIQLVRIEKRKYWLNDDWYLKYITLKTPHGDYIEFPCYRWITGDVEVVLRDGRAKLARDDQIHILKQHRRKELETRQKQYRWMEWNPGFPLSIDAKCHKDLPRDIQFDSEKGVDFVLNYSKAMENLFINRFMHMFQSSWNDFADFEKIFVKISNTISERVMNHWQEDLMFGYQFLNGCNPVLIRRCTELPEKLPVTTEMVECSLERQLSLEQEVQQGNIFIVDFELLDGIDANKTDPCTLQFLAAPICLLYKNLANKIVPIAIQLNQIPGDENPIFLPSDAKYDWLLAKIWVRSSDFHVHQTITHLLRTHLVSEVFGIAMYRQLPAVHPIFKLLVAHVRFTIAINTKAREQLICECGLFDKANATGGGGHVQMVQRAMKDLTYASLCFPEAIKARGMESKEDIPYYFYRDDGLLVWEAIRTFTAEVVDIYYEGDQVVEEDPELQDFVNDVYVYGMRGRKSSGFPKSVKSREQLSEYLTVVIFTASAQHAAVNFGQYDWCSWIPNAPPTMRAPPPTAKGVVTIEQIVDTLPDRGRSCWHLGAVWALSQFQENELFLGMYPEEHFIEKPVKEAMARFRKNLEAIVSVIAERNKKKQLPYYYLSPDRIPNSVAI
In words: Inhibition of 5-lox (unknown origin) at 20 uM relative to control.

The test system of experiment [12] is RAW264.7. In words: Antiinflammatory activity in mouse RAW264.7 cells assessed as inhibition of LPS-induced nitric oxide production after 24 hrs by Griess reagent based assay relative to control. The format is functional, cell-based. Particulars: RAW264.7, 24 h.
In experiment [13] the test system is RAW264.7. Briefly: Cytotoxicity against mouse RAW264.7 cells assessed as cell viability after 24 hrs by MTT assay relative to control. The format is functional.

Regarding `C=C1[C@@H]2[C@H]3OC(=O)C(=C)[C@@H]3CCC(=C)[C@@H]2C[C@@H]1O`, the inhibition in experiment [1] was found to be 97%; in experiment [2], 99.4%.

Consider `C[C@@H]1O[C@@H](Oc2c(-c3cc(O)c(O)c(O)c3)oc3cc(O)cc(O)c3c2=O)[C@H](O)[C@H](O)[C@H]1O`, for which the inhibition at 100 µM in the experiment with THP-1 stood at 19.5%.

Consider `CC1(C)NC(CCc2ccc(O)cc2)CC(=O)C1Cc1ccc(O)cc1` (stereo unspecified), for which the inhibition in [3] worked out at 83.3%.

In the case of `O=C(/C=C/CCc1ccc(O)cc1)CCc1ccc(O)cc1`, the inhibition in experiment [4] is 98.4%.

`O=c1c2cc(O)c(O)cc2oc2cc(O)cc(O)c12` gave an IC50 in experiment [5] of 0.04461 µg/mL (≈ 0.171 µM). Further, the inhibition with RAW264.7 [6] was 70.8%.

`CCCCCC(=O)/C=C/C=C\CCCCCCCC(=O)O` returned an inhibition in experiment [7] of 16.6%.

Regarding `C=C1C(=O)O[C@@H]2[C@H]3[C@@H](C)C(=O)C[C@H]3C(=C)CC[C@@H]12`, the values for the inhibition in experiment [1] and in experiment [2] were 98.6% and 100%, respectively.

In experiment [8], `CCOC(=O)[C@H](CO)NC(=O)c1cccc(O)c1O` came in with an IC50 of 2.8 µM.

Consider `C=C1CC[C@]2(C(=O)O[C@@H]3O[C@H](CO)[C@@H](O)[C@H](O)[C@H]3O)CC[C@]3(C)C(=CC[C@@H]4[C@@]5(C)CC[C@H](O[C@@H]6OC[C@@H](O)[C@H](O)[C@H]6O[C@@H]6O[C@H](CO)[C@@H](O)[C@H](O)[C@H]6O)C(C)(C)[C@@H]5CC[C@]43C)[C@@H]2[C@H]1C`, for which the figures for the inhibition at 30 µM with RAW264.7 [9] and with RAW264.7 [10] were 75.9% and 40.9%, respectively.

`COc1cc(C2Oc3cc(/C=C/COC(=O)CC(C)C)cc(OC)c3OC2COC(=O)CC(C)C)cc(OC)c1O` (stereo unspecified) gave an inhibition in experiment [11] of 16.1%.

With `C[C@@H]1O[C@@H](O[C@H]2[C@H](O[C@H]3[C@H](O[C@H]4CC[C@@]5(C)[C@@H](CC[C@]6(C)[C@@H]5CC=C5[C@@H]7C[C@]8(C)C[C@@H](OC8=O)[C@]7(C)CC[C@]56C)[C@@]4(C)CO)O[C@H](C(=O)O)[C@@H](O)[C@@H]3O)OC[C@@H](O)[C@@H]2O)[C@H](O)[C@H](O)[C@H]1O`, the half-inhibitory concentration (IC50) in the experiment on RAW264.7 [12] amounted to 18.8 µM. Further, in the experiment with RAW264.7 [13], the Activity came to 97.6%.
